# Experimental data from US5814631A, “Quinazoline derivatives and applications thereof” (Suntory Limited, priority 1995, dated 1998).
# Where two headings read alike, the source gives them in different places.
# Legend:
# [1] = target: T1, bovine pancreatic α-chymotrypsin (Bos taurus, UniProt P00766); experiment: Measurement of chymotrypsin inhibitive activity (Ang I, HPLC); type: biochemical; conditions: for IC50: bovine pancreatic α-chymotrypsin, Ang I substrate, 37° C., 15 min, pH 7.5; for inhibition at 100 µM: percent inhibition at 100 μM
# T1 construct: purchased Sigma Co. Type II; host or cells: bovine pancreas
# [2] = target: T2, human neutrophil derived cathepsin G (Homo sapiens, UniProt P08311); experiment: Measurement of cathepsin G inhibitive activity (conversion of Ang I to Ang II, HPLC); type: biochemical; conditions: Ang I substrate, 37° C., 30 min, pH 7.5
# T2 sequence (P08311 21-244 limits assumed): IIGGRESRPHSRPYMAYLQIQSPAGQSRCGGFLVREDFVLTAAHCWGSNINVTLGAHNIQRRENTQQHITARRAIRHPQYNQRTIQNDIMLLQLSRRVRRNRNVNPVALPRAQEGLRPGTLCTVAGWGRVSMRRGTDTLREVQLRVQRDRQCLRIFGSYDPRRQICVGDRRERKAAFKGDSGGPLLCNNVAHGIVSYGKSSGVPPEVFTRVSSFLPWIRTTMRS
# human heart chymase [3] = target: T3, human heart chymase (Homo sapiens, UniProt P23946); experiment: biochemical; conditions: Chymase inhibitive activity (IC50), Ang I substrate, 37° C., 30 min, pH 7.5
# T3 sequence (P23946 22-247): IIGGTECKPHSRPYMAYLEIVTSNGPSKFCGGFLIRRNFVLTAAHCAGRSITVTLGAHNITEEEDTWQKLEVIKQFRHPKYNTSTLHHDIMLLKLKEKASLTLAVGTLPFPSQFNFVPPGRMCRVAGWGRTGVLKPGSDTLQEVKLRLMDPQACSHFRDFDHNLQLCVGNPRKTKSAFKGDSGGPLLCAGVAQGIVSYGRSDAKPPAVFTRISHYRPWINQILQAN
# Protocol: (§1) That is, to 10 μl of a 20 mM trisphosphate buffer (pH 7.5) containing 2MKCl were added 10 μl of purified chymase and 5 μl of a dimethylsulfoxide (hereinafter referred to as DMSO) solution of the test sample. The mixture was preincubated at 37° C. for 10 minutes, then 25 μl of a 1 mM Ang I solution was added and the mixture preincubated at 37° C. for 30 minutes. Next, 50 μl of 30% acetic acid was added to stop the enzymatic reaction. At the same time, a blind test was performed by adding, instead of the test sample solution, 5 μl of DMSO and performing the same reaction.
# (§2) The reacted solution was subjected to high performance liquid chromatography using Develosil ODS-5 (made by Nomura Kagaku, .phi.4.6 mm×150 mm) and developed at a flow rate of 2.0 ml/min in 0.05% TFA by a straight concentration gradient raising the acetonitrile from 0% to 60% over 10 minutes. This was monitored by the absorbance at 210 nm and the peaks identified by comparison with standard samples of Ang I and Ang II. The peak areas were measured by an integrating meter to quantitatively analyze the Ang I and Ang II and calculate the chymase activity.
# human heart chymase [4] = target: T3, human heart chymase; conditions: read-out: Chymase inhibitive activity (IC50), Ang I substrate, 37° C., 30 min, pH 7.5
# Protocol: as §1, §2
# in vivo = conditions: mouse, po
# [5] = tested on: vascular restenosis after the operation of PTCA; conditions: random multifacility clinical study, Europe, placebo control; cited from earlier work
Compound,IC50 [1],IC50 [2],IC50 (human heart chymase [3]),other results
O=C(O)c1ccc(S(=O)(=O)n2c(=O)[nH]c3cc(Cl)ccc3c2=O)cc1,25000 nM,580 nM,3100 nM,
"3(4-chlorobenzenesulfonyl)-1-phenethyl-2,4(1H,3H)-quinazolinedione [Example 129]",,,,IC50 (human heart chymase [4]): 3200 nM
"O=c1[nH]c2cc(Cl)ccc2c(=O)n1S(=O)(=O)c1ccc(Cl)cc1 [Example 1, 7-chloro-3-(-4-chlorobenzenesulfonyl)-2,4(1H,3H)-quinazolinedione]",1500 nM,520 nM,,LD50 at 24 h (in vivo): ≥ 1000 mg/kg
"Cc1cccc2[nH]c(=O)n(S(=O)(=O)c3ccc(Cl)cc3)c(=O)c12 [Example 2, 3-(4-chlorobenzenesulfonyl)-5-methyl-2,4(1H,3H)-quinazolinedione]",,,,LD50 at 24 h (in vivo): ≥ 1000 mg/kg; selectivity ratio at 24 h (in vivo): ≥ 50
Cc1ccc2[nH]c(=O)n(S(=O)(=O)c3ccc(Cl)cc3)c(=O)c2c1 [Example 3],3500 nM,64400 nM,3900 nM,
"C=CCOC(=O)c1ccc(S(=O)(=O)n2c(=O)[nH]c3cc(Cl)ccc3c2=O)cc1 [Example 5, 3-(4-allyloxycarbonylbenzenesulfonyl)-7-chloro-2,4(1H,3H)-quinazolinedione]",2000 nM,340 nM,,
"COc1cccc2c(=O)n(S(=O)(=O)c3ccc(Cl)cc3)c(=O)[nH]c12 [Example 7, 3-(4-chlorobenzenesulfonyl)-8-methoxy-2,4(1H,3H)-quinazolinedione]",1900 nM,3200 nM,23000 nM,
"Cc1ccc(S(=O)(=O)n2c(=O)[nH]c3cc(Cl)ccc3c2=O)cc1C [Example 9, 7-chloro-3-(3,4-dimethylbenzenesulfonyl)-2,4(1H,3H)-quinazolinedione]",2500 nM,480 nM,1600 nM,
"O=c1[nH]c2cc(Cl)ccc2c(=O)n1S(=O)(=O)c1ccccc1 [Example 11, 7-chloro-3-benzenesulfonyl-2,4 3(1H,3H)-quinazolinedione]",3000 nM,250 nM,730 nM,
"O=c1[nH]c2cc(Cl)ccc2c(=O)n1S(=O)(=O)c1ccc([N+](=O)[O-])cc1 [Example 13, 7-chloro-3-(4-nitrobenzenesulfonyl)-2,4(1H,3H)-quinazolinedione]",240 nM,34 nM,850 nM,
"O=C(O)c1cccc(S(=O)(=O)n2c(=O)[nH]c3cc(Cl)ccc3c2=O)c1 [Example 15, 3-(3-carboxybenzenesulfonyl)-7-chloro-2,4(1H,3H)-quinazolinedione]",4800 nM,790 nM,2400 nM,
"COC(=O)c1ccc(S(=O)(=O)n2c(=O)[nH]c3cc(Cl)ccc3c2=O)cc1 [Example 19, 7-chloro-3-(4-methoxycarbonylbenzenesulfonyl)-2,4(1H,3H)-quinazolinedione]",400 nM,160 nM,200 nM,
"Cc1cc2[nH]c(=O)n(S(=O)(=O)c3ccc(Cl)cc3)c(=O)c2cc1C [Example 21, 3-(4-chlorobenzenesulfonyl)-6,7-dimethyl-2,4(1H,3H)-quinazolinedione]",8500 nM,37000 nM,30000 nM,
"O=c1[nH]c2ccccc2c(=O)n1S(=O)(=O)c1ccc(Cl)cc1 [Example 23, 3-(4-chlorobenzenesulfonyl)-2,4(1H,3H)-quinazolinedione]",12000 nM,3800 nM,1600 nM,
"CC(C)(C)OC(=O)Cn1c(=O)n(S(=O)(=O)c2ccc(Cl)cc2)c(=O)c2ccc(Cl)cc21 [Example 25, 1-t-butoxycarbonylmethyl-7-chloro-3-(4-chlorobenzenesulfonyl)-2,4(1H,3H)-quinazolinedione]",,37000 nM,6300 nM,inhibition at 100 µM [1]: 34.5%
"Cn1c(=O)n(S(=O)(=O)c2ccc(Cl)cc2)c(=O)c2ccc(Cl)cc21 [Example 27, 7-chloro-3-(4-chlorobenzenesulfonyl)-1-methyl-2,4(1H,3H)-quinazolinedione]",,16000 nM,7000 nM,inhibition at 100 µM [1]: 27%
"O=C(O)Cn1c(=O)n(S(=O)(=O)c2ccc(Cl)cc2)c(=O)c2ccc(Cl)cc21 [Example 29, 1-carboxymethyl-7-chloro-3-(4-chlorobenzenesulfonyl)-2,4(1H,3H)-quinazolinedione]",,14000 nM,3300 nM,inhibition at 100 µM [1]: 46.5%
"O=c1[nH]c2cc(F)ccc2c(=O)n1S(=O)(=O)c1ccc(Cl)cc1 [Example 31, 3-(4-chlorobenzenesulfonyl)-7-fluoro-2,4(1H,3H)-quinazolinedione]",5700 nM,1100 nM,1700 nM,

Compound,IC50 [1],IC50 [2],IC50 (human heart chymase [3]),other results
"O=c1[nH]c2ccc(F)cc2c(=O)n1S(=O)(=O)c1ccc(Cl)cc1 [Example 33, 3-(4-chlorobenzenesulfonyl)-6-fluoro-2,4(1H,3H)-quinazolinedione]",4600 nM,3600 nM,1900 nM,
"O=c1[nH]c2cc3ccccc3cc2c(=O)n1S(=O)(=O)c1ccc(Cl)cc1 [Example 35, 3-(4chlorobenzenesulfonyl)-2,4(1H,3H)-benzo[g]quinazolinedione]",1400 nM,,2400 nM,
"Cc1ccc(S(=O)(=O)n2c(=O)[nH]c3cc(Cl)ccc3c2=O)cc1 [Example 37, 7-chloro-3-(4-toluenesulfonyl)-2,4(1H,3H)-quinazolinedione]",6100 nM,1200 nM,1300 nM,
"Nc1ncc(NC(=O)Cn2c(=O)n(S(=O)(=O)c3ccc(Cl)cc3)c(=O)c3ccc(Cl)cc32)cn1 [Example 87, [7-chloro-3-(4-chlorobenzenesulfonyl)-2,4(1H,3H)-quinazolinedion-1-yl]-N-(4-(2-aminopyrimidinyl))acetamide]",,,,IC50 (human heart chymase [4]): 130 nM
"O=C(Cn1c(=O)n(S(=O)(=O)c2ccc(Cl)cc2)c(=O)c2ccc(Cl)cc21)Nc1cc[nH]c(=O)n1 [Example 88, [7-chloro-3-(4-chlorobenzenesulfonyl)-2,4(1H,3H)-quinazolinedion-1-yl]-N-cytosinacetamide]",,,,IC50 (human heart chymase [4]): 200 nM
"O=C(O)CCCOc1ccc(NC(=O)Cn2c(=O)n(S(=O)(=O)c3ccc(Cl)cc3)c(=O)c3ccc(Cl)cc32)cc1 [Example 111, [7-chloro-3-(4-chlorobenzenesulfonyl)-2,4(1H,3H)-quinazolinedion-1-yl]-N-(4-(3-carboxylpropyloxy)phenyl)acetamide]",,,130 nM,
"O=c1c2ccc(Cl)cc2n(Cc2cccnc2)c(=O)n1S(=O)(=O)c1ccc(Cl)cc1 [Example 114, 7-chloro-3-(4-chlorobenzenesulfonyl)-1-(3-pyridylmethyl)-2,4(1H,3H)-quinazolinedione]",,,46 nM,
"O=C(Cn1c(=O)n(S(=O)(=O)c2ccc(-c3cc[nH]n3)cc2)c(=O)c2ccc(Cl)cc21)Nc1cccnc1 [Example 121, {7-chloro-3-[4-(3-pyrazolyl)benzenesulfonyl]-2,4(1H,3H)-quinazolinedion-1-yl}-N-(3-pyridlyl)acetamide]",,,340 nM,
"O=C(Cn1c(=O)n(S(=O)(=O)c2cccnc2)c(=O)c2ccc(Cl)cc21)Nc1cccnc1 [Example 123, [7-chloro-3-(pyridine-3-sulfonyl)-2,4-(1H,3H)-quinazolinedion-1-yl]-N-(3-pyridyl)acetamide]",,,580 nM,
"O=c1[nH]c2cc(Cl)ccc2c(=O)n1S(=O)(=O)c1ccc[nH]1 [Example 125, 7-chloro-3-(pyrrole-2-sulfonyl)-2,4(1H,3H)-quinazolinedione]",,,29000 nM,
"O=c1[nH]c2cc(Cl)ccc2c(=O)n1S(=O)(=O)c1ccc(Cl)cc1F [Example 134, 7-chloro-3-(4-chloro-2-fluorobenzenesulfonyl)-2,4(1H,3H)-quinazolinedione]",,,1800 nM,
"O=c1[nH]c2cc(Cl)ccc2c(=O)n1S(=O)(=O)c1ccc(C(F)(F)F)cc1 [Example 136, 7-chloro-3-(4-trifluoromethylbenzenesulfonyl)-2,4(1H,3H)-quinazolinedione]",,,460 nM,
"O=C(Cn1c(=O)n(S(=O)(=O)c2ccc(Cl)cc2)c(=O)c2ccc(Cl)cc21)Nc1ccc(Cl)cc1 [Example 140, [7-chloro-3-(4-chlorobenzenesulfonyl)-2,4(1H,3H)-quinazolinedion-1-yl]-N-(4-chlorophenyl)acetamide]",,,60 nM,
"O=c1[nH]c2cc(Cl)ccc2c(=O)n1S(=O)(=O)c1ccc(OCCBr)cc1 [Example 145, 7-chloro-3-[4-(2-bromoethyloxy)benzenesulfonyl]-2,4(1H,3H)-quinazolinedione]",,,1500 nM,
"CC(=O)c1ccc(S(=O)(=O)n2c(=O)[nH]c3cc(Cl)ccc3c2=O)cc1 [Example 149, 3-(4-acetylbenzenesulfonyl)-7-chloro-2,4(1H,3H)-quinazolinedione]",,,570 nM,
O=c1[nH]c2cc(O)ccc2c(=O)n1S(=O)(=O)c1ccc(Cl)cc1 [Example 151],,,2800 nM,
CCOC(=O)[C@H](CCc1ccccc1)N[C@H]1CCCN2CCC[C@@H](C(=O)O)N2C1=O [cilazapril],,,,prophylactic effect on vascular restenosis after PTCA versus placebo [5]: no statistically significant difference
